According to US12116343B2, “Inhibitors of APOL1 and methods of using same” (Vertex Pharmaceuticals Incorporated, priority 2020, dated 2024):

Target: T1, APOL1 G1 Protein (Homo sapiens, UniProt O14791, I384M/S342G)
T1 sequence (O14791 28-398 S342G/I384M): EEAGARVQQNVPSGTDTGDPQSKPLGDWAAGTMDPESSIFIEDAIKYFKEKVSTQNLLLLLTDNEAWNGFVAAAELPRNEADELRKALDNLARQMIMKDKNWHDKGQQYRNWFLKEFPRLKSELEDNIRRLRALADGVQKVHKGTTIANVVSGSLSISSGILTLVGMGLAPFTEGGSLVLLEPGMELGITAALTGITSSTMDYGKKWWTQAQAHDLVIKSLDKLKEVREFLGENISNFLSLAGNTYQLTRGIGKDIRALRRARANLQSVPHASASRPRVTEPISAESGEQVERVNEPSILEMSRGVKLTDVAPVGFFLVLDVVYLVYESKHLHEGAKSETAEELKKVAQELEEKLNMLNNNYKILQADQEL
Experiment: Trypanosoma brucei brucei lysis assay using APOL1 recombinant protein (AlamarBlue viability)
Assay type: cell-based
Conditions: Trypanosoma brucei brucei lysis, recombinant APOL1, AlamarBlue; read-out: Trypanosoma Assay (IC50)
Procedure, shortened: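 Bloodstream-form T. b. brucei Lister 427 VSG 221, 120,000 parasites/well in phenol red-free, FBS-free medium, lysed by recombinant APOL1 G1 with compound (10-point dose response, 0.1% DMSO final). Viability read by AlamarBlue fluorescence against a parasite standard curve.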

SMILES | IC50 [nM]
O=C(NCc1nnco1)[C@H]1C[C@H](c2c(-c3ccc(F)cc3)[nH]c3c(F)cc(F)cc32)C1 [Compound 171] | < 250
NC(=O)C(CO)NC(=O)[C@H]1C[C@H](c2c(-c3ccc(F)cc3)[nH]c3c(F)cc(F)cc32)C1 (stereo partly shown) [Compound 32] | < 250
Cc1cnc(NC(=O)[C@H]2C[C@H](c3c(-c4ccc(F)cc4)[nH]c4c(F)cc(F)cc43)C2)o1 [Compound 24] | > 1000
O=C(NCC(F)(F)F)[C@H]1C[C@H](c2c(-c3ccc(F)cc3)[nH]c3c(F)cc(F)cc32)C1 [Compound 33] | > 1000
O=C([C@H]1C[C@H](c2c(-c3ccc(F)cc3)[nH]c3c(F)cc(F)cc32)C1)N1CC[C@@H]1CO [Compound 195] | < 250
O=C(N[C@H]1COC[C@@H]1O)[C@H]1C[C@H](c2c(-c3ccc(F)cc3)[nH]c3c(F)cc(F)cc32)C1 [Compound 184] | 250 to 1000
CC[C@H](CO)NC(=O)[C@H]1C[C@H](c2c(-c3ccc(F)cc3)[nH]c3c(F)cc(F)cc32)C1 [Compound 203] | 250 to 1000
CC(CO)(CO)NC(=O)[C@H]1C[C@H](c2c(-c3ccc(F)cc3)[nH]c3c(F)cc(F)cc32)C1 [Compound 186] | < 250
O=C([C@H]1C[C@H](c2c(-c3ccc(F)cc3)[nH]c3c(F)cc(F)cc32)C1)N1CCC[C@@H]1CO [Compound 192] | < 250
O=C(NC1(CO)CCOC1)[C@H]1C[C@H](c2c(-c3ccc(F)cc3)[nH]c3c(F)cc(F)cc32)C1 (stereo partly shown) [Compound 194] | < 250
O=C(NCC1(O)CC1)[C@H]1C[C@H](c2c(-c3ccc(F)cc3)[nH]c3c(F)cc(F)cc32)C1 [Compound 183] | 250 to 1000
CC(C)C(CO)NC(=O)[C@H]1C[C@H](c2c(-c3ccc(F)cc3)[nH]c3c(F)cc(F)cc32)C1 (stereo partly shown) [Compound 29] | 250 to 1000
O=C(NCCn1cnnc1)[C@H]1C[C@H](c2c(-c3ccc(F)cc3)[nH]c3c(F)cc(F)cc32)C1 [Compound 39] | > 1000
O=C(NC(CO)C1CC1)[C@H]1C[C@H](c2c(-c3ccc(F)cc3)[nH]c3c(F)cc(F)cc32)C1 (stereo partly shown) [Compound 199] | 250 to 1000
Cn1cncc1CNC(=O)[C@H]1C[C@H](c2c(-c3ccc(F)cc3)[nH]c3c(F)cc(F)cc32)C1 [Compound 174] | 250 to 1000
O=C([C@H]1C[C@H](c2c(-c3ccc(F)cc3)[nH]c3c(F)cc(F)cc32)C1)N1CC(CO)C1 [Compound 223] | < 250
Cc1cc(CNC(=O)[C@H]2C[C@H](c3c(-c4ccc(F)cc4)[nH]c4c(F)cc(F)cc43)C2)on1 [Compound 37] | 250 to 1000
O=C(NC[C@H]1CC[C@@H](CO)O1)[C@H]1C[C@H](c2c(-c3ccc(F)cc3)[nH]c3c(F)cc(F)cc32)C1 [Compound 189] | > 1000
C#CC(CO)NC(=O)[C@H]1C[C@H](c2c(-c3ccc(F)cc3)[nH]c3c(F)cc(F)cc32)C1 (stereo partly shown) [Compound 196] | < 250
C[C@]1(NC(=O)[C@H]2C[C@H](c3c(-c4ccc(F)cc4)[nH]c4c(F)cc(F)cc43)C2)C[C@@H](O)C1 [Compound 211] | 250 to 1000
O=C(NC[C@H](O)CO)[C@H]1C[C@H](c2c(-c3ccc(F)cc3)[nH]c3c(F)cc(F)cc32)C1 [Compound 225] | 250 to 1000

SMILES | IC50 [nM]
O=C(N[C@H]1CC[C@H]1O)[C@H]1C[C@H](c2c(-c3ccc(F)cc3)[nH]c3c(F)cc(F)cc32)C1 [Compound 181] | 250 to 1000
Cn1ncc(CNC(=O)[C@H]2C[C@H](c3c(-c4ccc(F)cc4)[nH]c4c(F)cc(F)cc43)C2)n1 [Compound 198] | < 250
O=C(N[C@H]1C[C@H](O)C1)[C@H]1C[C@H](c2c(-c3ccc(F)cc3)[nH]c3c(F)cc(F)cc32)C1 [Compound 20] | 250 to 1000
O=C(NCCn1cncn1)[C@H]1C[C@H](c2c(-c3ccc(F)cc3)[nH]c3c(F)cc(F)cc32)C1 [Compound 36] | < 250
CC(O)(CO)CNC(=O)[C@H]1C[C@H](c2c(-c3ccc(F)cc3)[nH]c3c(F)cc(F)cc32)C1 (mixture of isomers) [Compound 216] | > 1000
O=C(N[C@H]1CC[C@@H]1O)[C@H]1C[C@H](c2c(-c3ccc(F)cc3)[nH]c3c(F)cc(F)cc32)C1 [Compound 178] | 250 to 1000
CC(CO)N(C)C(=O)[C@H]1C[C@H](c2c(-c3ccc(F)cc3)[nH]c3c(F)cc(F)cc32)C1 (mixture of isomers) [Compound 193] | 250 to 1000
O=C1NCCC1CNC(=O)[C@H]1C[C@H](c2c(-c3ccc(F)cc3)[nH]c3c(F)cc(F)cc32)C1 (stereo partly shown) [Compound 208] | > 1000
Cc1cc(NC(=O)[C@H]2C[C@H](c3c(-c4ccc(F)cc4)[nH]c4c(F)cc(F)cc43)C2)no1 [Compound 17] | 250 to 1000
O=C([C@H]1C[C@H](c2c(-c3ccc(F)cc3)[nH]c3c(F)cc(F)cc32)C1)N1CCC[C@H]1CO [Compound 210] | 250 to 1000
Cc1nnc(CNC(=O)[C@H]2C[C@H](c3c(-c4ccc(F)cc4)[nH]c4c(F)cc(F)cc43)C2)o1 [Compound 172] | < 250
Cc1noc(CNC(=O)[C@H]2C[C@H](c3c(-c4ccc(F)cc4)[nH]c4c(F)cc(F)cc43)C2)n1 [Compound 173] | < 250
O=C(NCC1(O)COC1)[C@H]1C[C@H](c2c(-c3ccc(F)cc3)[nH]c3c(F)cc(F)cc32)C1 [Compound 185] | 250 to 1000
O=C(NCC(O)CO)[C@H]1C[C@H](c2c(-c3ccc(F)cc3)[nH]c3c(F)cc(F)cc32)C1 (stereo partly shown) [Compound 14] | 250 to 1000
CC(C)(O)C(O)CNC(=O)[C@H]1C[C@H](c2c(-c3ccc(F)cc3)[nH]c3c(F)cc(F)cc32)C1 (stereo partly shown) [Compound 215] | > 1000
C[C@@H](CO)NC(=O)[C@H]1C[C@H](c2c(-c3ccc(F)cc3)[nH]c3c(F)cc(F)cc32)C1 [Compound 200] | < 250
Cn1cc(CNC(=O)[C@H]2C[C@H](c3c(-c4ccc(F)cc4)[nH]c4c(F)cc(F)cc43)C2)cn1 [Compound 38] | 250 to 1000
O=C1NCCCC1NC(=O)[C@H]1C[C@H](c2c(-c3ccc(F)cc3)[nH]c3c(F)cc(F)cc32)C1 (stereo partly shown) [Compound 23] | 250 to 1000
CC(C)CC(NC(=O)[C@H]1C[C@H](c2c(-c3ccc(F)cc3)[nH]c3c(F)cc(F)cc32)C1)C(N)=O (stereo partly shown) [Compound 30] | > 1000
Cc1ccn(CCNC(=O)[C@H]2C[C@H](c3c(-c4ccc(F)cc4)[nH]c4c(F)cc(F)cc43)C2)n1 [Compound 35] | 250 to 1000
O=C(N[C@@H]1CCC[C@@H]1O)[C@H]1C[C@H](c2c(-c3ccc(F)cc3)[nH]c3c(F)cc(F)cc32)C1 [Compound 179] | 250 to 1000

SMILES | IC50 [nM]
CC1(CO)CCN1C(=O)[C@H]1C[C@H](c2c(-c3ccc(F)cc3)[nH]c3c(F)cc(F)cc32)C1 (mixture of isomers) [Compound 218] | < 250
O=C1N[C@H](CO)C[C@@H]1NC(=O)[C@H]1C[C@H](c2c(-c3ccc(F)cc3)[nH]c3c(F)cc(F)cc32)C1 [Compound 209] | > 1000
CC1(NC(=O)[C@H]2C[C@H](c3c(-c4ccc(F)cc4)[nH]c4c(F)cc(F)cc43)C2)CCNC1=O (mixture of isomers) [Compound 197] | < 250
COC[C@@H]1CCN1C(=O)[C@H]1C[C@H](c2c(-c3ccc(F)cc3)[nH]c3c(F)cc(F)cc32)C1 [Compound 222] | < 250
O=C([C@H]1C[C@H](c2c(-c3ccc(F)cc3)[nH]c3c(F)cc(F)cc32)C1)N1CC[C@H]1CO [Compound 206] | < 250
NC(=O)[C@@H](CO)NC(=O)[C@H]1C[C@H](c2c(-c3ccc(F)cc3)[nH]c3c(F)cc(F)cc32)C1 [Compound 221] | < 250
O=C(N[C@@H]1CCC[C@H]1O)[C@H]1C[C@H](c2c(-c3ccc(F)cc3)[nH]c3c(F)cc(F)cc32)C1 [Compound 182] | > 1000
O=C1CN(C(=O)[C@H]2C[C@H](c3c(-c4ccc(F)cc4)[nH]c4c(F)cc(F)cc43)C2)CCN1 [Compound 228] | > 1000
Cn1ccc(NC(=O)[C@H]2C[C@H](c3c(-c4ccc(F)cc4)[nH]c4c(F)cc(F)cc43)C2)n1 [Compound 22] | 250 to 1000
N#CC(CO)NC(=O)[C@H]1C[C@H](c2c(-c3ccc(F)cc3)[nH]c3c(F)cc(F)cc32)C1 (stereo partly shown) [Compound 201] | < 250
O=C(NC[C@@H](O)CO)[C@H]1C[C@H](c2c(-c3ccc(F)cc3)[nH]c3c(F)cc(F)cc32)C1 [Compound 224] | > 1000
O=C(NC1(CO)CC(F)(F)C1)[C@H]1C[C@H](c2c(-c3ccc(F)cc3)[nH]c3c(F)cc(F)cc32)C1 [Compound 202] | < 250
COCCNC(=O)[C@H]1C[C@H](c2c(-c3ccc(F)cc3)[nH]c3c(F)cc(F)cc32)C1 [Compound 12] | 250 to 1000
O=C(N[C@@H]1CCOC1)[C@H]1C[C@H](c2c(-c3ccc(F)cc3)[nH]c3c(F)cc(F)cc32)C1 [Compound 19] | 250 to 1000
C[C@H](O)[C@@H](CO)NC(=O)[C@H]1C[C@H](c2c(-c3ccc(F)cc3)[nH]c3c(F)cc(F)cc32)C1 [Compound 16] | < 250
O=C1CCC(NC(=O)[C@H]2C[C@H](c3c(-c4ccc(F)cc4)[nH]c4c(F)cc(F)cc43)C2)C(=O)N1 (stereo partly shown) [Compound 26] | 250 to 1000
NC(=O)C1CC(c2c(-c3ccc(F)cc3)[nH]c3c(F)cc(F)cc23)C1 (stereo not shown) [Compound 278, 3-[5,7-difluoro-2-(4-fluorophenyl)-1H-indol-3-yl]cyclobutanecarboxamide] | 250 to 1000
O=C(NCCn1cccc1)[C@H]1C[C@H](c2c(-c3ccc(F)cc3)[nH]c3c(F)cc(F)cc32)C1 [Compound 34] | 250 to 1000
C[C@@H](O)CNC(=O)[C@H]1C[C@H](c2c(-c3ccc(F)cc3)[nH]c3c(F)cc(F)cc32)C1 [Compound 175] | 250 to 1000
